# Data taken from patent US20090239841A1, “Diaryl Ureas as CB1 Antagonists” (priority 2004, published 2009).
# pIC50: −log10 of the molar value.
# Molecular target: T1, hCB1 (Homo sapiens, UniProt P21554)
# T1 construct: made in house; host or cells: Sf9 insect cells (baculovirus), P2 membranes
# Test: Agonist-induced GTP binding (GTPγ35S) assay at CB1, Example 8
# Assay type: biochemical
# Details: IC50 at CB1, determined as described in Example 8; read-out: IC50
# In short: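 Membranes from Sf9 cells co-expressing hCB1 and heterotrimeric G-protein (10 μg protein) in Tris pH 7.4 buffer with 5 μM GDP. Test compounds (10^−10–10^−5 M) competed against 1 nM CP55,940 with […] GTPγ35S, 60 min at room temperature. Filter-bound radioactivity by scintillation, expressed as percent above basal.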
# T1 sequence (P21554 whole entry): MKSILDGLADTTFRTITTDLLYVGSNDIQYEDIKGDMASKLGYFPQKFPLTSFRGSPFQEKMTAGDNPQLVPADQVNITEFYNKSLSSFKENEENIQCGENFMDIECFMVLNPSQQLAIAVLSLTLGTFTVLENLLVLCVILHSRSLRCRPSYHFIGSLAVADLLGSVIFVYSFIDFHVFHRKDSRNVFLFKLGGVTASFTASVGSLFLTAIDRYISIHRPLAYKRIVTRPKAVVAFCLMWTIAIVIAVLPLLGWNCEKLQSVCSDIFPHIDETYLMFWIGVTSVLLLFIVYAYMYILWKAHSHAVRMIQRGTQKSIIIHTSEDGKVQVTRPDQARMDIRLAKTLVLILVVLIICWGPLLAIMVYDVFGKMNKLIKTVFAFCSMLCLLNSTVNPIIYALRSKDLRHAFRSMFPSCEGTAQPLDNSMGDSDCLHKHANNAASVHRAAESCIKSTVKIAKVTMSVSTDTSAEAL
row,pIC50,SMILES
1,> 5.70,"CCOC(=O)c1cccc(NC(=O)Nc2ccc(CC#N)cc2)c1 [Compound 714, ethyl 3-[({[4-(cyanomethyl)phenyl]amino}carbonyl)amino)benzoate]"
2,> 5.70,"CCOC(=O)c1ccc(NC(=O)Nc2ccc(CC#N)cc2)cc1 [Compound 715, ethyl 4-[({[4-(cyanomethyl)phenyl]amino}carbonyl)amino]benzoate]"
3,> 5.70,"COC(=O)c1cccc(NC(=O)Nc2ccc(OCC#N)cc2)c1 [Compound 716, methyl 3-[({[4-(cyanomethoxy)phenyl]amino}carbonyl)amino] benzoate]"
4,> 5.70,"COC(=O)c1ccc(NC(=O)Nc2ccc(OCC#N)cc2)cc1 [Compound 717, methyl 4-[({[4-(cyanomethoxy)phenyl]amino}carbonyl)amino] benzoate]"
5,> 5.70,"CCOC(=O)c1cccc(NC(=O)Nc2ccc(OCC#N)cc2)c1 [Compound 718, ethyl 3-[({[4-(cyanomethoxy)phenyl]amino}carbonyl)amino]benzoate]"
6,> 5.70,"CCOC(=O)c1ccc(NC(=O)Nc2ccc(OCC#N)cc2)cc1 [Compound 719, ethyl 4-[({[4-(cyanomethoxy)phenyl]amino}carbonyl)amino]benzoate]"
7,> 5.70,"CCC(=O)c1ccc(NC(=O)Nc2cccc(C(=O)OC)c2)cc1 [Compound 720, methyl 3-({[(4-propionylphenyl)amino]carbonyl}amino)benzoate]"
8,> 5.70,"CCOC(=O)c1cccc(NC(=O)Nc2ccc(C(=O)CC)cc2)c1 [Compound 721, ethyl 3-({[(4-propionylphenyl)amino]carbonyl}amino)benzoate]"
9,> 5.70,"CCOC(=O)c1ccc(NC(=O)Nc2cccc(C(=O)OCC)c2)cc1 [Compound 722, ethyl 3-[({[4-(ethoxycarbonyl)phenyl]amino}carbonyl)amino] benzoate]"
10,> 5.70,"CCOC(=O)c1cccc(NC(=O)Nc2ccc(S(C)(=O)=O)cc2)c1 [Compound 723, ethyl 3-[({[4-(methylsulfonyl)phenyl]amino}carbonyl)amino] benzoate]"
11,> 5.70,"COC(=O)c1ccc(NC(=O)Nc2ccc(C(=O)OC(C)C)cc2)cc1 [Compound 724, isopropyl methyl 4,4′-(carbonyldiimino)dibenzoate]"
12,> 5.70,"CCOC(=O)c1cccc(NC(=O)Nc2ccc(C(=O)OC(C)C)cc2)c1 [Compound 725, ethyl 3-[({[4-(isopropoxycarbonyl)phenyl]amino}carbonyl)amino] benzoate]"
13,> 5.70,"Cc1ccc(NC(=O)Nc2ccc(CC#N)cc2)cc1C [Compound 726, 1-[4-(cyanomethyl)phenyl]-3-(3,4-dimethylphenyl)urea]"
14,> 5.70,"Cc1ccc(NC(=O)Nc2ccc(CC#N)cc2)cc1F [Compound 727, 1-[4-(cyanomethyl)phenyl]-3-(3-fluoro-4-methylphenyl)urea]"
15,> 5.70,"N#CCc1ccc(NC(=O)Nc2ccc(F)c(F)c2)cc1 [Compound 728, 1-[4-(cyanomethyl)phenyl]-3-(3,4-difluorophenyl)urea]"
16,> 5.70,"Cc1ccc(NC(=O)Nc2ccc(OCC#N)cc2)cc1C [Compound 729, 1-[4-(cyanomethoxy)phenyl]-3-(3,4-dimethylphenyl)urea]"
17,> 5.70,"Cc1ccc(NC(=O)Nc2ccc(OCC#N)cc2)cc1F [Compound 730, 1-[4-(cyanomethoxy)phenyl]-3-(3-fluoro-4-methylphenyl)urea]"
18,> 5.70,"Cc1cc(NC(=O)Nc2ccc(OCC#N)cc2)ccc1F [Compound 731, 1-[4-(cyanomethoxy)phenyl]-3-(4-fluoro-3-methylphenyl)urea]"
19,> 5.70,"N#CCOc1ccc(NC(=O)Nc2ccc(F)c(F)c2)cc1 [Compound 732, 1-[4-(cyanomethoxy)phenyl]-3-(3,4-difluorophenyl)urea]"
20,> 5.70,"CCC(=O)c1ccc(NC(=O)Nc2ccc(C)c(C)c2)cc1 [Compound 733, 1-(3,4-dimethylphenyl)-3-(4-propionylphenyl)urea]"
21,> 5.70,"CCC(=O)c1ccc(NC(=O)Nc2ccc(C)c(F)c2)cc1 [Compound 734, 1-(3-fluoro-4-methylphenyl)-3-(4-propionylphenyl)urea]"
22,> 5.70,"CCC(=O)c1ccc(NC(=O)Nc2ccc(F)c(C)c2)cc1 [Compound 735, 1-(4-fluoro-3-methylphenyl)-3-(4-propionylphenyl)urea]"
23,> 5.70,"CCOC(=O)c1ccc(NC(=O)Nc2ccc(C)c(F)c2)cc1 [Compound 737, ethyl 4-({[(3-fluoro-4-methylphenyl)amino]carbonyl}amino)benzoate]"
24,> 5.70,"CCOC(=O)c1ccc(NC(=O)Nc2ccc(F)c(C)c2)cc1 [Compound 738, ethyl 4-({[(4-fluoro-3-methylphenyl)amino]carbonyl}amino)benzoate]"
25,> 5.70,"CCOC(=O)c1ccc(NC(=O)Nc2ccc(F)c(F)c2)cc1 [Compound 739, ethyl 4-({[(3,4-difluorophenyl)amino]carbonyl}amino)benzoate]"

row,pIC50,SMILES
1,> 5.70,"Cc1ccc(NC(=O)Nc2ccc(C(=O)OC(C)C)cc2)cc1F [Compound 740, isopropyl 4-({[(3-fluoro-4-methylphenyl)amino]carbonyl}amino)benzoate]"
2,> 5.70,"N#CCOc1ccc(NC(=O)Nc2cc(F)cc(F)c2)cc1 [Compound 743, 1-[4-(cyanomethoxy)phenyl]-3-(3,5-difluorophenyl)urea]"
3,> 5.70,"CCC(=O)c1ccc(NC(=O)Nc2cc(F)cc(F)c2)cc1 [Compound 744, 1-(3,5-difluorophenyl)-3-(4-propionylphenyl)urea]"
4,> 5.70,"COC(=O)c1ccc(NC(=O)Nc2cccc(O)c2)cc1 [Compound 745, methyl 4-({[(3-hydroxyphenyl)amino]carbonyl}amino)benzoate]"
5,> 5.70,"CCOC(=O)c1ccc(NC(=O)Nc2cccc(O)c2)cc1 [Compound 746, ethyl 4-({[(3-hydroxyphenyl)amino]carbonyl}amino)benzoate]"
6,> 5.70,"COC(=O)c1ccc(NC(=O)Nc2ccc(O)cc2)cc1 [Compound 747, methyl 4-({[(4-hydroxyphenyl)amino]carbonyl}amino)benzoate]"
7,> 5.70,"CCOC(=O)c1ccc(NC(=O)Nc2ccc(O)cc2)cc1 [Compound 748, ethyl 4-({[(4-hydroxyphenyl)amino]carbonyl}amino)benzoate]"
8,> 5.70,"CCOC(=O)c1ccc(NC(=O)Nc2ccc(CO)cc2)cc1 [Compound 749, ethyl 4-[({[4-(hydroxymethyl)phenyl]amino}carbonyl)amino] benzoate]"
9,> 5.70,"CCOC(=O)c1ccc(NC(=O)Nc2ccc(C(C)O)cc2)cc1 (centres unmarked) [Compound 750, ethyl 4-[({[4-(1-hydroxyethyl)phenyl]amino}carbonyl)amino] benzoate]"
10,> 5.70,"CCOC(=O)c1ccc(NC(=O)Nc2cccc(CCO)c2)cc1 [Compound 751, ethyl 4-[({[3-(2-hydroxyethyl)phenyl]amino}carbonyl)amino] benzoate]"
11,> 5.70,"COC(=O)c1ccc(NC(=O)Nc2ccc(CCO)cc2)cc1 [Compound 752, methyl 4-[({[4-(2-hydroxyethyl)phenyl]amino}carbonyl)amino] benzoate]"
12,> 5.70,"CCOC(=O)c1cccc(NC(=O)Nc2ccc(CCO)cc2)c1 [Compound 753, ethyl 3-[({[4-(2-hydroxyethyl)phenyl]amino}carbonyl)amino] benzoate]"
13,> 5.70,"CCOC(=O)c1ccc(NC(=O)Nc2ccc(CCO)cc2)cc1 [Compound 754, ethyl 4-[({[4-(2-hydroxyethyl)phenyl]amino}carbonyl)amino] benzoate]"
14,> 5.70,"COC(=O)c1ccc(NC(=O)Nc2cccc(OCCO)c2)cc1 [Compound 755, methyl 4-[({[3-(2-hydroxyethoxy)phenyl]amino}carbonyl)amino] benzoate]"
15,> 5.70,"CCOC(=O)c1cccc(NC(=O)Nc2cccc(OCCO)c2)c1 [Compound 756, ethyl 3-[({[3-(2-hydroxyethoxy)phenyl]amino}carbonyl)amino] benzoate]"
16,> 5.70,"CCOC(=O)c1ccc(NC(=O)Nc2cccc(OCCO)c2)cc1 [Compound 757, ethyl 4-[({[3-(2-hydroxyethoxy)phenyl]amino}carbonyl)amino] benzoate]"
17,> 5.70,"CCOC(=O)c1ccc(NC(=O)Nc2ccc(OCC(C)O)cc2)cc1 (centres unmarked) [Compound 758, ethyl 4-[({[4-(2-hydroxypropoxy)phenyl]amino}carbonyl)amino] benzoate]"
18,> 5.70,"Cc1ccc(NC(=O)Nc2cccc(O)c2)cc1F [Compound 759, 1-(3-fluoro-4-methylphenyl)-3-(3-hydroxyphenyl)urea]"
19,> 5.70,"Cc1ccc(NC(=O)Nc2ccc(O)cc2)cc1F [Compound 760, 1-(3-fluoro-4-methylphenyl)-3-(4-hydroxyphenyl)urea]"
20,> 5.70,"Cc1ccc(NC(=O)Nc2ccc(CCO)cc2)cc1C [Compound 761, 1-(3,4-dimethylphenyl)-3-[4-(2-hydroxyethyl)phenyl]urea]"
21,> 5.70,"Cc1ccc(NC(=O)Nc2cccc(OCCO)c2)cc1F [Compound 762, 1-(3-fluoro-4-methylphenyl)-3-[3-(2-hydroxyethoxy)phenyl]urea]"
22,> 5.70,"Cc1ccc(NC(=O)Nc2ccc(OCC(C)O)cc2)cc1F (centres unmarked) [Compound 763, 1-(3-fluoro-4-methylphenyl)-3-[4-(2-hydroxypropoxy)phenyl]urea]"
23,> 5.70,"CCOC(=O)c1ccc(NC(=O)Nc2ccccc2Br)cc1 [Compound 764, ethyl 4-({[(2-bromophenyl)amino]carbonyl}amino)benzoate]"
24,> 5.70,"COC(=O)c1cccc(NC(=O)Nc2ccc(C)c(F)c2)c1 [Compound 765, methyl 3-({[(3-fluoro-4-methylphenyl)amino]carbonyl}amino)benzoate]"
25,> 5.70,"CCOC(=O)c1cccc(NC(=O)Nc2ccc(C)c(F)c2)c1 [Compound 766, ethyl 3-({[(3-fluoro-4-methylphenyl)amino]carbonyl}amino)benzoate]"
